Results reported in patent publication US8932597B2 (priority 2008, dated 2015).

The substances below were run on anti-M2 human monoclonal antibody Z3G1.
Format: binding

Substance | Signal (peptides that bind to Z3G1) | Signal (peptides that show specific binding to Z3G1) | Binding to Z3G1 (in words)
1479 (CTEVETPIRNLLTEVETPICEVETPIRNE; epitope peptide; MISC_FEATURE (1)..(1): C is an attachment site for a CLIP; MISC_FEATURE (10)..(10): N is an attachment site for a CLIP; MISC_FEATURE (11)..(11): L is an attachment site for a CLIP; MISC_FEATURE (29)..(29): E is an attachment site for a CLIP) [compound 1479] | 1627 |  | 
1258 (MLLLTEVETPIRNEWGCRCN; epitope peptide) [compound 1258] | 2091 |  | 
1335 (MCLLTEVGMSCLTEV; epitope peptide) [compound 1335] | 1869 |  | 
1307 (MSLLTEVNTPIRNEWGCRCN; epitope peptide) [compound 1307] | 2807 |  | 
1513 (CEVETPIRNELLTEVETPICETPIRNEWG; epitope peptide; MISC_FEATURE (1)..(1): C is an attachment site for a CLIP; MISC_FEATURE (10)..(10): E is an attachment site for a CLIP; MISC_FEATURE (11)..(11): L is an attachment site for a CLIP; MISC_FEATURE (29)..(29): G is an attachment site for a CLIP) [compound 1513] |  | 2466 | 
1300 (MSLLTEVDTPIRNEWGCRCN; epitope peptide) [compound 1300] | 2856 |  | 
1495 (CTEVETPIRNLLTEVETPICVETPIRNEW; epitope peptide; MISC_FEATURE (1)..(1): C is an attachment site for a CLIP; MISC_FEATURE (10)..(10): N is an attachment site for a CLIP; MISC_FEATURE (11)..(11): L is an attachment site for a CLIP; MISC_FEATURE (29)..(29): W is an attachment site for a CLIP) [compound 1495] | 2088 |  | 
1590 (SLLWEVETPIRNEWGCRCNDSSD; epitope peptide) [compound 1590] |  | 2221 | 
1588 (SLLREVETPIRNEWGCRCNDSSD; epitope peptide) [compound 1588] |  | 2286 | 
1559 (SLLCEVGSLLTCV; epitope peptide) [compound 1559] |  | 1972 | 
1314 (CMSLCTEVETPIRNE; epitope peptide) [compound 1314] | 1705 |  | 
1460 (CEVETPIRNELLTEVETPICTEVETPIRN; epitope peptide; MISC_FEATURE (1)..(1): C is an attachment site for a CLIP; MISC_FEATURE (10)..(10): E is an attachment site for a CLIP; MISC_FEATURE (11)..(11): L is an attachment site for a CLIP; MISC_FEATURE (29)..(29): N is an attachment site for a CLIP) [compound 1460] | 1620 |  | 
1458 (CLTEVETPIRLLTEVETPICTEVETPIRN; epitope peptide; MISC_FEATURE (1)..(1): C is an attachment site for a CLIP; MISC_FEATURE (10)..(10): R is an attachment site for a CLIP; MISC_FEATURE (11)..(11): L is an attachment site for a CLIP; MISC_FEATURE (29)..(29): N is an attachment site for a CLIP) [compound 1458] | 1756 |  | 
1371 (SLLCEVETPIRNE; epitope peptide) [compound 1371] | 2511 |  | 
1327 (MSLLCEVETPICNE; epitope peptide) [compound 1327] | 2704 |  | 
1263 (MRLLTEVETPIRNEWGCRCN; epitope peptide) [compound 1263] | 2519 |  | 
1561 (SLLCEVGCLCTCV; epitope peptide) [compound 1561] |  | 2331 | 
1326 (MSLLCEVETPIRCE; epitope peptide) [compound 1326] | 2772 |  | 
1331 (MSLLCEVCTPIRNE; epitope peptide) [compound 1331] | 2601 |  | 
1336 (MSLLCEVGMSCLTEV; epitope peptide) [compound 1336] | 2846 |  | 
1294 (MSLLVEVETPIRNEWGCRCN; epitope peptide) [compound 1294] | 2732 |  | 
1301 (MSLLTEVFTPIRNEWGCRCN; epitope peptide) [compound 1301] | 1858 |  | 
CSLLTEVGSLLTEV (epitope peptide) [SEQ ID NO: 283] |  |  | recognized
1399 (SLLTEVETPIRNECG; epitope peptide) [compound 1399] | 1545 |  | 
1482 (CETPIRNEWGLLTEVETPICEVETPIRNE; epitope peptide; MISC_FEATURE (1)..(1): C is an attachment site for a CLIP; MISC_FEATURE (10)..(10): G is an attachment site for a CLIP; MISC_FEATURE (11)..(11): L is an attachment site for a CLIP; MISC_FEATURE (29)..(29): E is an attachment site for a CLIP) [compound 1482] | 1648 |  | 
1569 (KLLTEVETPIRNEWGCRCNDSSD; epitope peptide) [compound 1569] |  | 1826 | 
1349 (MSLLCEVGCSCLCEV; epitope peptide) [compound 1349] | 2586 |  | 

Substance | Signal (peptides that bind to Z3G1) | Signal (peptides that show specific binding to Z3G1) | Binding to Z3G1 (in words)
1280 (MSLLDEVETPIRNEWGCRCN; epitope peptide) [compound 1280] | 2763 |  | 
1515 (CETPIRNEWGLLTEVETPICETPIRNEWG; epitope peptide; MISC_FEATURE (1)..(1): C is an attachment site for a CLIP; MISC_FEATURE (10)..(10): G is an attachment site for a CLIP; MISC_FEATURE (11)..(11): L is an attachment site for a CLIP; MISC_FEATURE (29)..(29): G is an attachment site for a CLIP) [compound 1515] |  | 2427 | 
1357 (CLLTEVETCIRNE; epitope peptide) [compound 1357] | 1661 |  | 
1279 (MSLLAEVETPIRNEWGCRCN; epitope peptide) [compound 1279] | 2807 |  | 
1398 (SLLTEVETPIRNECC; epitope peptide) [compound 1398] | 1493 |  | 
1312 (MSLLTEVEWPIRNEWGCRCN; epitope peptide) [compound 1312] | 2541 |  | 
1494 (CLTEVETPIRLLTEVETPICVETPIRNEW; epitope peptide; MISC_FEATURE (1)..(1): C is an attachment site for a CLIP; MISC_FEATURE (10)..(10): R is an attachment site for a CLIP; MISC_FEATURE (11)..(11): L is an attachment site for a CLIP; MISC_FEATURE (29)..(29): W is an attachment site for a CLIP) [compound 1494] | 2443 |  | 
1585 (SLLKEVETPIRNEWGCRCNDSSD; epitope peptide) [compound 1585] |  | 2611 | 
1358 (CLLTEVECPIRNE; epitope peptide) [compound 1358] | 2326 |  | 
1387 (SLLCEVETPIRNEWC; epitope peptide) [compound 1387] | 2406 |  | 
1344 (MCLCTCVGMSLLCEV; epitope peptide) [compound 1344] | 2431 |  | 
1564 (ELLTEVETPIRNEWGCRCNDSSD; epitope peptide) [compound 1564] |  | 2201 | 
1286 (MSLLKEVETPIRNEWGCRCN; epitope peptide) [compound 1286] | 2825 |  | 
439 (SLLTEVETPIRNE; epitope peptide) [compound 439] | 1819 |  | 
1577 (SLDTEVETPIRNEWGCRCNDSSD; epitope peptide) [compound 1577] |  | 1505 | 
1261 (MPLLTEVETPIRNEWGCRCN; epitope peptide) [compound 1261] | 2521 |  | 
1289 (MSLLNEVETPIRNEWGCRCN; epitope peptide) [compound 1289] | 2824 |  | 
1256 (MILLTEVETPIRNEWGCRCN; epitope peptide) [compound 1256] | 1634 |  | 
1366 (SLLCEVECPIRNE; epitope peptide) [compound 1366] | 2377 |  | 
1339 (MCLLTEVGMSLLCEV; epitope peptide) [compound 1339] | 2234 |  | 
1397 (CLLTEVCTPIRNEWG; epitope peptide) [compound 1397] | 1634 |  | 
1346 (MCLLTEVGMSLLTCV; epitope peptide) [compound 1346] | 1098 |  | 
1342 (MSLLTCVGMSLLCEV; epitope peptide) [compound 1342] | 2712 |  | 
1259 (MMLLTEVETPIRNEWGCRCN; epitope peptide) [compound 1259] | 2666 |  | 
1554 (SLLCEVGSLLCEV; epitope peptide) [compound 1554] |  | 2399 | 
1383 (CLLTEVECPIRNEWG; epitope peptide) [compound 1383] | 2157 |  | 
1296 (MSLLYEVETPIRNEWGCRCN; epitope peptide) [compound 1296] | 2464 |  | 
